The values that follow come from EP0297534B1, “Castanospermine esters and glycosides” (MERRELL DOW PHARMACEUTICALS INC., priority 1987, dated 1989).

The structures appear in SMILES notation.

In one test the test system is serum glucose elevation. In words: Sucrose load test: inhibition of serum glucose elevation. Conditions: for minimal effective dose: Mus musculus, 0.5 h, oral, test compound plus sucrose at 2.0 g/kg, serum glucose at 30 minutes post sucrose, amount needed to significantly inhibit serum glucose elevation; for Duration Of Action: oral test compound 1, 2 or 3 hours before sucrose at 2.0 g/kg, serum glucose 30 minutes post sucrose. In kind it is in vivo, ICR Swiss mice. How it is done:
The compounds of the present invention were further tested in a sucrose load test to determine their ability to inhibit serum glucose elevation. The procedure can be summarized as follows.
ICR Swiss mice, fasted for 18-20 hours, were orally dosed with test compound plus sucrose at 2.0 g/kg. At 30 minutes post sucrose, the animals were sacrificed and their serum glucose concentrations were determined. […] To test duration of action, mice were orally dosed twice. The initial dose was test compound or vehicle. After 1, 2, or 3 hours, the mice were dosed with sucrose at 2.0 g/kg. After an additional 30 minutes post sucrose, the animals were sacrificed and their serum glucose concentrations were determined. Test compound activity was indicated by a significant difference of serum glucose concentration from the corresponding control. The activity observed can be summarized as follows: TABLE II

The target in another test is T1, Lysosomal α-Glucosidase (Rattus norvegicus, UniProt Q6P7A9).
T1 construct: Lysosomal α-glucosidase was isolated and partially purified from rat liver; from tissue; host or cells: rat liver
T1 sequence (Q6P7A9 70-953): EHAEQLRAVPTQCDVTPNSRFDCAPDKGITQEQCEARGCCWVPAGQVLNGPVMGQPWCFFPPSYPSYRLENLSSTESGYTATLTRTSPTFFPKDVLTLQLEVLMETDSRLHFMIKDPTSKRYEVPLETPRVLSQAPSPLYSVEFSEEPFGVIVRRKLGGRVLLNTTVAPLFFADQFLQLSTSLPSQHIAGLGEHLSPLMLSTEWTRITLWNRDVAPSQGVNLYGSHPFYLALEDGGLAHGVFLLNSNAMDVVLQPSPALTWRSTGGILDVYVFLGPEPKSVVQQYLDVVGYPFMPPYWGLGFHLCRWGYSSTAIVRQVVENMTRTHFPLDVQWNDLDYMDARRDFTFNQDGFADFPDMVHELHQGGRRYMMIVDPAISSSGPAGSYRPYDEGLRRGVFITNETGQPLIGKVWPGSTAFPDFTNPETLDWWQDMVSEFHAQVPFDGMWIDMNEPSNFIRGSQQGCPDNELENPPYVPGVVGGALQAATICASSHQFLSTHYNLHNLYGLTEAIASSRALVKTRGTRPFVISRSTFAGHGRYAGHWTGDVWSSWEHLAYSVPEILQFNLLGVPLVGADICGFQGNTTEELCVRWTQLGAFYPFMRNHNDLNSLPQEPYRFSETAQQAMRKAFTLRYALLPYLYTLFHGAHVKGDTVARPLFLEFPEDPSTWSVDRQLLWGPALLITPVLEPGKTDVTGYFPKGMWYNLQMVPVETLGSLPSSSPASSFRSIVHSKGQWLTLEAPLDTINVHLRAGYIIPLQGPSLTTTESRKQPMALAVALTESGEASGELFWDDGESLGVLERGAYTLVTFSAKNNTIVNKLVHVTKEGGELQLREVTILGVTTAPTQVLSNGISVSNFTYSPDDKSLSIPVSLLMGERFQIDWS
Description: Lysosomal α-glucosidase inhibition (p-nitrophenyl-α-D-glucoside hydrolysis). To be noted: partially purified from rat liver, 1 hour preincubation at 37°C, pH 4.2, read-out: IC₅₀ Lysosomal α-Glucosidase. Format: biochemical. Here is the method:
Lysosomal α-glucosidase was isolated and partially purified from rat liver by the method of Dissous [Anal. Biochem., 116, 35 (1981)] through the ammonium sulfate fractionation steps. Enzyme was incubated with test compound for 1 hour at 37°C prior to the addition of p-nitrophenyl-α-D-glucoside in a final volume of 0.6 ml of 0.1 M sodium acetate, 25 mM potassium chloride, pH 4.2. Mixtures were incubated for an additional 30 minutes at 37°C and then heat inactivated at 90°C. Denatured protein was removed by centrifugation. One ml of 0.1 M sodium carbonate was added to the supernatant fraction and liberated nitrophenol determined by its absorption at 410 nm.

Another test deals with T2, Intestinal Sucrase (Rattus norvegicus, UniProt P23739).
T2 construct: Sucrase was isolated from rat intestine as a crude homogenate; from tissue; host or cells: rat intestine
T2 sequence (P23739 whole entry): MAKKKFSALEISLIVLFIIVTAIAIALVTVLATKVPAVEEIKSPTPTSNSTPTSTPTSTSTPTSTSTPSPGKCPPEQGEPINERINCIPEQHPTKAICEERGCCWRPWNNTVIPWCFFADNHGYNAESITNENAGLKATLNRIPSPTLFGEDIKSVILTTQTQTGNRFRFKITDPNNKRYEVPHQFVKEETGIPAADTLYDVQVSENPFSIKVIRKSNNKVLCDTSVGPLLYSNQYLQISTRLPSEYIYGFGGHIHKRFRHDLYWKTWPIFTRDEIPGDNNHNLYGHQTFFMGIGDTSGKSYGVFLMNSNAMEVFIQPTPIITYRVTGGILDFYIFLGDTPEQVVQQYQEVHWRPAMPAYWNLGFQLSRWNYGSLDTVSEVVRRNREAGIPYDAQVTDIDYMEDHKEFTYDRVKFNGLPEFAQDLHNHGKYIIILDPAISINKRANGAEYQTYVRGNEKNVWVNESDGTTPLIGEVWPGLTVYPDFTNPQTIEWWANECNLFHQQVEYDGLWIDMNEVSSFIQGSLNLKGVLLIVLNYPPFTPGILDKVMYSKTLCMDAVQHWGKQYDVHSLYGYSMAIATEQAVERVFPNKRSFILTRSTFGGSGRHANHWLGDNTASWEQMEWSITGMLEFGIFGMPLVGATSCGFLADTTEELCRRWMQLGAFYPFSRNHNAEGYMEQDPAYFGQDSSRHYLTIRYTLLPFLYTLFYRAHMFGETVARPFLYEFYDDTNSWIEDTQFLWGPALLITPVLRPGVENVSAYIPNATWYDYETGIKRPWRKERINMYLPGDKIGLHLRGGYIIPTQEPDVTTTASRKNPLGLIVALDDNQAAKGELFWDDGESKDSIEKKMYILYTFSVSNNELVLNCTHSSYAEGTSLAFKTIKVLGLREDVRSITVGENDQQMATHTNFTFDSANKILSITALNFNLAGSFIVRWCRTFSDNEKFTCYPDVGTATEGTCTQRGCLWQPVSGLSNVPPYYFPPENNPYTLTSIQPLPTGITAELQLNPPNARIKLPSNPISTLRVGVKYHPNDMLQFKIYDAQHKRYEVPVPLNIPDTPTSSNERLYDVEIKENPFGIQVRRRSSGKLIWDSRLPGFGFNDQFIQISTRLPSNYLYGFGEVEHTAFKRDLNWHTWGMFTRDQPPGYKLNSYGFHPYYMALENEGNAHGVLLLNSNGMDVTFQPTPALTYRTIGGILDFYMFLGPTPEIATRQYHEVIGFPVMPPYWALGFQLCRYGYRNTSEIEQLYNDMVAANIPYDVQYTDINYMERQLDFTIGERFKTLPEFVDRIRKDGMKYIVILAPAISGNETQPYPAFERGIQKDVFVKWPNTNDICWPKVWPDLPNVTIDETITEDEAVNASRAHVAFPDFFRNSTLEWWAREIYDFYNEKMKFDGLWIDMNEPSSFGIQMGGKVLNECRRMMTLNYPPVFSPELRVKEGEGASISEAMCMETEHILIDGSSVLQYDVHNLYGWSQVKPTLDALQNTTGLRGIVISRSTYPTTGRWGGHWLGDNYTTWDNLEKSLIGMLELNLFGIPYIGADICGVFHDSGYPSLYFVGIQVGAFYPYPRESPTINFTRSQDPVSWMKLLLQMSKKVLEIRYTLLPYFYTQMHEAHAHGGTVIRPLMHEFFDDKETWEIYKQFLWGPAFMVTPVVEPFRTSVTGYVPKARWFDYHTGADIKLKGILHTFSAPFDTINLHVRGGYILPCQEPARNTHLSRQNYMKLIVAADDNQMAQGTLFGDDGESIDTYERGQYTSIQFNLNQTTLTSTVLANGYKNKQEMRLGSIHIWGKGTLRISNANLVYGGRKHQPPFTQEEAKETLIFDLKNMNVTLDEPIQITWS
In words: Intestinal sucrase inhibition (glucose liberated from sucrose). Format: biochemical. Conditions: crude homogenate from rat intestine; 1 hour preincubation with test compound; sucrose substrate, pH 5.9; read-out: IC₅₀ Intestinal Sucrase. How it is done:
Sucrase was isolated from rat intestine as a crude homogenate using the salt extraction procedure of Kolinska [Biochem. Biophys. Acta, 284, 235 (1984)]. Incubation mixtures contained 100 µl of enzyme preparation plus test compound and were incubated for 1 hour before the addition of 6.6 µmole sucrose in 100 µl 0.1 M sodium maleate, pH 5.9. The mixtures were incubated an additional 30 minutes and then heat inactivated at 80-100°C for 3 minutes. Denatured protein was removed by centrifugation. Glucose liberated was determined by glucose dehydrogenase reagents (Seragen Diagnostics).

For the compound `O=C(O[C@H]1[C@H](O)[C@H]2[C@@H](O)CCN2C[C@@H]1O)c1ccc(Cl)cc1Cl` [7-(2,4-Dichlorobenzoate), [1S-(1α,6β,7α,8β,8aβ)]-octahydro-1,6,7,8-indolizinetetrol 7-(2,4-dichlorobenzoate)], the minimal effective dose in the test on serum glucose elevation was 20 mg/kg. For the same compound, the IC50 on Lysosomal α-Glucosidase came out at 100 µM; at Intestinal Sucrase, 0.4 µM.
As for `O=C(O[C@H]1[C@H](O)[C@H]2[C@@H](O)CCN2C[C@@H]1O)c1ccc(F)cc1` [7-(4-Fluorobenzoate), [1S-(1α,6β,7α,8β,8aβ)]-octahydro-1,6,7,8-indolizinetetrol 7-(4-fluorobenzoate)], in the test on serum glucose elevation, the minimal effective dose came out at 5 mg/kg and the “Duration Of Action” value worked out at 2 h. The IC50 at Lysosomal α-Glucosidase is 6 µM. In addition, the IC50 at Intestinal Sucrase was 0.4 µM.
As for `O=C(O[C@H]1CN2CC[C@H](O)[C@@H]2[C@@H](O)[C@@H]1O)c1ccccc1` [6-Benzoate, (1S-(1α,6β,7α,8β,8aβ)]-octahydro-1,6,7,8-indolizinetetrol 6-benzoate], the minimal effective dose in the test on serum glucose elevation is 1 mg/kg. The “Duration Of Action” value in the test on serum glucose elevation is reported as 1 hour hours. In addition, the values for the IC50 on Lysosomal α-Glucosidase and on Intestinal Sucrase were 800 µM and 0.08 µM, respectively.
Take `O=C(O[C@H]1[C@H](O)[C@H]2[C@@H](O)CCN2C[C@@H]1OC(=O)c1ccc(F)cc1)c1ccc(F)cc1` [6,7-bis(4-Fluorobenzoate), [1S-(1α,6β,7α,8β,8aβ)]-octahydro-1,6,7,8-indolizinetetrol 6,7-bis(4-fluorobenzoate)]: the IC50 at Lysosomal α-Glucosidase is more than 1000 µM; on Intestinal Sucrase it was 4 µM.
For the compound `OC[C@H]1O[C@H](O[C@H]2[C@H](O)[C@@H](O)CN3CC[C@H](O)[C@H]23)[C@H](O)[C@@H](O)[C@@H]1O` [8-α-D-Glucopyranoside, 8-O-(α-D-glucopyranosyl)-[1S-(1α,6β,7α,8β,8aβ)]-octahydro-1,6,7,8-indolizinetetrol], the minimal effective dose in the test with serum glucose elevation amounted to 1 mg/kg. Also, the “Duration Of Action” value with serum glucose elevation is recorded as “≧3 hours”. For the same compound, the IC50 on Lysosomal α-Glucosidase came to 300 µM; at Intestinal Sucrase, 0.05 µM.
In the case of `Cc1ccc(C(=O)O[C@H]2CN3CC[C@H](O)[C@@H]3[C@@H](O)[C@@H]2O)cc1` [6-(4-Methylbenzoate), [1S-(1α,6β,7α,8β,8aβ)]-octahydro-1,6,7,8-indolizinetetrol 6-(4-methylbenzoate)], the IC50 at Lysosomal α-Glucosidase was found to be 1000 µM; on Intestinal Sucrase, 0.3 µM.
Taken in the same sequence, the figures for `CCCC(=O)O[C@H]1[C@H](O)[C@@H](OC(=O)CCC)CN2CC[C@H](O)[C@H]12` [6,8-Dibutyrate, [1S-(1α,6β,7α,8β,8aβ)]-octahydro-1,6,7,8-indolizinetetrol 6,8-dibutanoate] were more than 1000 µM and 0.2 µM.
Take `O=C(O[C@H]1[C@H](O)[C@H]2[C@@H](O)CCN2C[C@@H]1O)c1ccccc1` [7-Benzoate, [1S-(1α,6β,7α,8β,8aβ)]-octahydro-1,6,7,8-indolizinetetrol 7-benzoate]: the minimal effective dose in the test on serum glucose elevation came out at 5 mg/kg. Further, the IC50 at Lysosomal α-Glucosidase stood at 200 µM; on Intestinal Sucrase, 2 µM.
On the same counts, the results for `O=C(O[C@H]1[C@H](O)[C@H]2[C@@H](O)CCN2C[C@@H]1OC(=O)c1ccccc1)c1ccccc1` [6,7-Dibenzoate, [1S-(1α,6β,7α,8β,8aβ)]-octahydro-1,6,7,8-indolizinetetrol 6,7-dibenzoate] are 20 mg/kg, more than 1000 µM and 2 µM.
As to `COc1ccc(C(=O)O[C@H]2CN3CC[C@H](O)[C@@H]3[C@@H](O)[C@@H]2O)cc1` [6-(4-Methoxybenzoate), (1S-(1α,6β,7α,8β,8aβ)]-octahydro-1,6,7,8-indolizinetetrol 6-(4-methoxybenzoate)], the IC50 is 1000 µM at Lysosomal α-Glucosidase and 2 µM at Intestinal Sucrase.
Consider `O=C(O[C@H]1CN2CC[C@H](O)[C@@H]2[C@@H](O)[C@@H]1O)c1ccc(F)cc1` [6-(4-Fluorobenzoate), [1S-(1α,6β,7α,8β,8aβ)]-octahydro-1,6,7,8-indolizinetetrol 6-(4-fluorobenzoate)], for which the minimal effective dose in the test with serum glucose elevation was 5 mg/kg. Further, the IC50 at Lysosomal α-Glucosidase came to 4 µM; at Intestinal Sucrase, 0.2 µM.

In general, minimal effective dose refers to the lowest level tested that produced the effect sought.
